Here are results for two molecules from patent publication US8501205B2, “Insect repellent composition” (priority 2006, dated 2013).

Marks after values point to notes of the source that are not given here.

One test has as its system host-seeking mosquitoes. Briefly: Study A Guatemala field trial, human-landing catch on treated lower legs. The test is classed as in vivo, Psorophora varipes, Aedes Ochlerotatus taeniorhynchus. An excerpt:
Study A—Guatemala Study. The following repellent formulations (% by weight) were used: (1) C15: repellent containing the amounts of ingredients described in Example 1—the PMD obtained from acid modification of Coryinbia citriodora oil, CAS: 42822-86-6, purchased from Chemian Technology Ltd under the trademark Citriodiol®; (2)115: repellent containing the amounts of ingredients described in Example 1—the PMD obtained from Coolact® 38D; (3) T20: containing 20 wt % PMD instead of 15%, obtained from Coolact® 38D; (4) positive control: 15% DEET (N,N-diethyl-meta-toluamide, CAS 134-62-3; Sigma-Aldrich Co.) in ethanol; (5) negative control: mixture of 20% mineral oil and ethanol.
(§1) Study A and B, Both studies were controlled double blind, human-landing catch design. All solutions were placed in unmarked containers labeled by code. On any one night, human volunteers had both lower legs treated with either one of the PMD/LG candidate repellents or a positive or negative control at a rate of 0.002 ml/cm^2 between the ankle and the knee. Volunteers' leg length and circumference were measured to calculate surface area and the correct dose of treatment was measured using a micropipette, and applied using a latex glove to minimize absorption of material onto the hand of the volunteer. During the human-landing catches, the volunteers wore shorts to the knee, work boots, and a loose bug jacket (ProBuy) to ensure that blood-seeking mosquitoes had access only to their lower legs.
(§2) The designated locations within the field sites were 10 m from each other and a minimum of 20 m from alternate sources of kairomones such as houses and livestock. As insect repellents act over a distance of less than a meter, and the maximum distance of host attraction of a single human to mosquitoes is 10 m,^29 the design eliminates any “relativity effect” where insects choose between two hosts simultaneously. Mosquitoes were collected from the lower legs of the volunteers once they had settled—without the need to wait for biting—by using a mouth aspirator, flashlight, and a collection vessel. Collection vessels were changed each hour to provide hourly measures of repellency. Umbrellas were also provided, to protect the volunteers from any rain showers that might wash away their repellent.
(§3) All volunteers were experienced at conducting man-landing catches. A form outlining procedure was given to the volunteers to ensure that they had full understanding of the potential risks of a study of this kind. In addition, each was given chloroquine (Guatemala) or Mefloquine (Peru) prophylaxis in accordance with WHO guidelines.^30 Full ethical clearance was obtained from Universidad del Valle, Guatemala (Study A); and from London School of Hygiene and Tropical Medicine Ethics Board and Instituto Nacional de Salud, Peru (Study B).
Study A. The three repellents and two controls were applied to the five volunteers at 1430 hrs, and man-landing catches were performed at the field site for one hour before and after sunset (1730-1930 hrs), when the evening mosquito biting is at its peak as shown by preliminary man-landing catches. The times chosen allowed an assessment of the protection afforded by the repellent over 5 hours while exposing volunteers to bites for only 2 hours. This helped minimize exposure and risk to the collectors. The study was a balanced 5×5 Latin-square design that required each volunteer to test each treatment five times throughout the study over a period of twenty-five nights. Every evening, each individual was allocated one of five treatments, and sat in one of five allocated positions. Consequently, the volunteers changed position every five days.
Mosquitoes were maintained overnight and killed by cooling prior to identification the following morning. Data were normalized using natural log ([…]) and analyzed with General Linear Model (GLM) using Minitab 11.0 for Windows. […]

The subject of a further test is An. darlingi. The settings on record: for 4 hours after application; biting pressure 75 mosquito landings per human-hour; cited from earlier work.
In the next test the test system is All mosquitoes. Briefly: Study B Peru field trial, human-landing catch, all mosquitoes. The test is classed as in vivo, mosquitoes (86% Anopheles darlingi). The settings on record: for % P = percentage protection / AM = arithmetic mean mosquito landings/hour / WM = William's mean mosquito landings/hour: All mosquitoes.
Excerpt: (§4) Study B—Peru Study. Repellent formulations (% by weight) were used: (1) “PMD+LG” containing about 16% PMD as indicated in Example 1—PMD obtained from Coolact® 38D; (2) positive control: 20% DEET (Sigma Aldridge) in ethanol (Sigma-Aldrich Co.); (3) negative control: 20% mineral oil (ExxonMobil Corporation) in ethanol.
as §1, §2, §3
(§5) Study B. The repellent and two controls were applied at 1600 hrs, and man-landing collections were performed at the field, between 1800 and 2200 hours, as this is the time of peak An. darlingi activity in the area (Chan, A. unpublished data). The times chosen allowed an assessment of the protection afforded by the repellent over to be made of relative protection of the samples for a period of 6 hours while exposing volunteers to bites for only 4 hours. This helped minimize exposure and risk to the collectors. The volunteers took a 15-minute break between 2000 hrs and 2015 hrs. The study was a 3×3 balanced Latin-square design performed using three volunteers over nine nights, with volunteers changing positions every third night. Due to unforeseen circumstances, one of the volunteers was replaced after 4 nights, and this was factored into the statistical analysis.
(§6) Mosquitoes were maintained overnight and killed by cooling prior to identification the following morning. Data were normalized using natural log ([…]) and analyzed with General Linear Model (GLM) using Minitab 11.0 for Windows. Further testing of individual variables was performed using Kruskal Wallis, as data could not be sufficiently normalized to use one-way Analysis of Variance (ANOVA) due to low collection numbers on repellent-treated individuals.

Another test relates to Anopheles darlingi. Nature of the test: Study B Peru field trial, human-landing catch, Anopheles darlingi. The class given is in vivo.
Excerpt: as §4, §1, §2, §3, §5, §6

The mark [1] stands for this setting: Mean of 4 and 5 hours post application.

For `CCN(CC)C(=O)c1cccc(C)c1` [15% DEET, N,N-diethyl-meta-toluamide], the “% P = percentage protection” value in the test with host-seeking mosquitoes (4 hours post application) is listed as 94.52%; in the test on host-seeking mosquitoes (5 hours post application), 87.85%; in the test on host-seeking mosquitoes (setting [1]) it was 91.42%. In addition, the “WM = William's mean mosquito landings/hour” value with host-seeking mosquitoes (4 hours post application) is given as 3.63 mosquito landings/hour; with host-seeking mosquitoes (5 hours post application), 4.87 mosquito landings/hour; with host-seeking mosquitoes (setting [1]) it was 3.60^c mosquito landings/hour. In addition, the “AM = arithmetic mean mosquito landings/hour” value in the test on host-seeking mosquitoes (4 hours post application, 0.002 ml/cm^2 on lower legs) is listed as 6.33 mosquito landings/hour; in the test with host-seeking mosquitoes (5 hours post application) it was 12.21 mosquito landings/hour; in the test with host-seeking mosquitoes (setting [1]), 9.27 mosquito landings/hour. Moreover, in the test on host-seeking mosquitoes (up to five hours after application, biting pressure 108 mosquitoes per man hour), the “protection from host-seeking mosquitoes” value is reported as 91%. In addition, in the test on An. darlingi, the protection was 85%.
As to `CCN(CC)C(=O)c1cccc(C)c1` [20% DEET, N,N-diethyl-meta-toluamide], the average protection with All mosquitoes (6 hours after application / over the duration of the trial) is listed as 62%. Besides, the “% P = percentage protection” value was 65.77% in the test with All mosquitoes (3 hours post application); 68.12% in the test with All mosquitoes (4 hours post application); 63.80% with All mosquitoes (5 hours post application); 52.08% with All mosquitoes (6 hours post application); 63.63% with All mosquitoes (Mean of 3-6 hours); 56.43% in the test on Anopheles darlingi (3 hours post application). In addition, the “% P = percentage protection” value in the test on Anopheles darlingi (4 hours post application) stood at 66.53%; in the test on Anopheles darlingi (5 hours post application), 62.21%; in the test with Anopheles darlingi (6 hours post application), 51.41%; with Anopheles darlingi (Mean of 3-6 hours) it was 61.40%. Further, the “AM = arithmetic mean mosquito landings/hour” value in the test on All mosquitoes (3 hours post application) was 15.22 mosquito landings/hour; in the test with All mosquitoes (4 hours post application), 19.78 mosquito landings/hour; in the test on All mosquitoes (5 hours post application), 13.89 mosquito landings/hour; with All mosquitoes (6 hours post application), 18.44 mosquito landings/hour; in the test with All mosquitoes (Mean of 3-6 hours), 16.83 mosquito landings/hour; in the test with Anopheles darlingi (3 hours post application), 13.56 mosquito landings/hour. Also, the “AM = arithmetic mean mosquito landings/hour” value is reported as 18.33 mosquito landings/hour in the test with Anopheles darlingi (4 hours post application), 12.89 mosquito landings/hour in the test with Anopheles darlingi (5 hours post application), 17.22 mosquito landings/hour with Anopheles darlingi (6 hours post application) and 15.00 mosquito landings/hour with Anopheles darlingi (Mean of 3-6 hours). The “WM = William's mean mosquito landings/hour” value is reported as 10.59 mosquito landings/hour in the test on All mosquitoes (3 hours post application); 16.12 mosquito landings/hour in the test on All mosquitoes (4 hours post application); 11.68 mosquito landings/hour in the test with All mosquitoes (5 hours post application); 15.28 mosquito landings/hour in the test with All mosquitoes (6 hours post application); 13.30^c mosquito landings/hour in the test on All mosquitoes (Mean of 3-6 hours); 9.59 mosquito landings/hour in the test on Anopheles darlingi (3 hours post application). Also, the “WM = William's mean mosquito landings/hour” value is 14.96 mosquito landings/hour in the test with Anopheles darlingi (4 hours post application), 10.59 mosquito landings/hour with Anopheles darlingi (5 hours post application), 13.59 mosquito landings/hour in the test with Anopheles darlingi (6 hours post application) and 12.07^c mosquito landings/hour with Anopheles darlingi (Mean of 3-6 hours).
